In patent US7722863B2, “Use of granzyme b as an hsp70/hsp70 peptide dependent inducer of apoptosis in tumor cells” (Multimmune GmbH, priority 2002, dated 2010):

Legend:
[1] = system: NK cells; experiment: Intracellular granzyme B expression after stimulation with Hsp70-peptide TKD; assay type: cell-based, human
Method: The NK cell line YT was cultured at cell densities ranging from 0.1-0.5×10^6 cells/ml RPMI-1640 medium (Life Technologies, Eggenstein, Germany) containing 10% heat inactivated fetal calf serum (FCS, Life Technologies, Eggenstein, Germany) supplemented with 6 mM L-glutamine, and antibiotics (100 IU/ml penicillin and 100 μg/ml streptomycin; Life Technologies). Transient plastic adherent NK cells were derived from buffy coats of healthy human volunteers. Ficoll separated peripheral blood mononuclear cells (PBMC) were cultured in rIL-2 (100 IU/ml, Chiron, Frankfurt, Germany) for 12 h. […]
Cells (0.5×10^6) were fixed in paraformaldehyde (1% PFA in PBS) for 10 min, and permeabilized in PBS containing BSA (0.5%), NaN3 (0.1%), and saponin (0.1%). […] Following washing cells were analysed on a FACSCalibur instrument (Becton Dickinson, Heidelberg, Germany).
The physiological role of our findings was tested in functional assays using naive and Hsp70 stimulated human NK cells. […] Although Hsp70 acts as a tumor-selective recognition structure for NK cells, as determined by antibody blocking studies (Multhoff et. al. (1997) J. Immunol. 158,4341; Multhoff et. al. (1995) Blood 86,1374), the NK-cytotoxic mechanism remains unclear. […]

[2] = system: CD3 positive T cells; experiment: Intracellular granzyme B expression after treatment with Hsp70-peptide TKD; assay type: cell-based, human; conditions: treated with Hsp70-peptide TKD
Method: The physiological role of our findings was tested in functional assays using naive and Hsp70 stimulated human NK cells. […] Although Hsp70 acts as a tumor-selective recognition structure for NK cells, as determined by antibody blocking studies (Multhoff et. al. (1997) J. Immunol. 158,4341; Multhoff et. al. (1995) Blood 86,1374), the NK-cytotoxic mechanism remains unclear. To elucidate the possible mechanism, NK cells were incubated with Hsp70-peptide TKD ([…]) for 3 days. […] In contrast, granzyme B expression was not increased in CD3 positive T cells treated with Hsp70-peptide TKD. Light microscopical analysis of Hsp70-peptide activated NK cells co-incubated with Hsp70 membrane-positive CX+ and Hsp70 membrane-negative CX− cells is illustrated in FIG. 4A. Hsp70 membrane-positive CX+ and Hsp70 membrane-negative CX− tumor cells (0.1×10^6 cells/ml) were cultured in duplicates in 24 well plates for 2 days. […] CX+ and CX− tumor cells in the upper panel were cultured in the absence of NK cells; tumor cells in the lower panel were co-cultured for 12 h with NK cells that had been stimulated with Hsp70-peptide TKD (2 μg/ml, 3 days). Nearly 100% of the CX+ cell colonies were found in clusters with NK cells and viability of CX+ tumor cells appears to be reduced. […]

[3] = system: CX+ tumor target cells; experiment: 12 h 51Cr release assay, NK cell mediated cytotoxicity; assay type: cell-based, human; conditions: E:T ratios 2:1 to 20:1; TKD 3 days
Method: (§1) The NK cell line YT was cultured at cell densities ranging from 0.1-0.5×10^6 cells/ml RPMI-1640 medium (Life Technologies, Eggenstein, Germany) containing 10% heat inactivated fetal calf serum (FCS, Life Technologies, Eggenstein, Germany) supplemented with 6 mM L-glutamine, and antibiotics (100 IU/ml penicillin and 100 μg/ml streptomycin; Life Technologies). Transient plastic adherent NK cells were derived from buffy coats of healthy human volunteers. Ficoll separated peripheral blood mononuclear cells (PBMC) were cultured in rIL-2 (100 IU/ml, Chiron, Frankfurt, Germany) for 12 h. Following adherence selection of monocyte depleted peripheral blood lymphocytes according to a modified method of Vujanovic (Vujanovic et. al. (1993) Cell. Immunol. 151, 133), cells were cultivated in RPMI-1640 medium supplemented with Hsp70-peptide TKD (2 μg/ml) for 3 days. The human tumor sublines CX+/CX− and Colo+/Colo− were derived by cell sorting of CX-2 colon (Hsp70 positive: 60%) and Colo357 pancreas (Hsp70 positive: 70%) carcinoma cell lines using the Hsp70 specific monoclonal antibody C92F3B1, according to a previously described protocol (Multhoff et. al. (1997) J. Immunol. 158, 4341).
(§2) NK cell mediated cytotoxicity was measured using a 12 h ^51Cr radioisotope assay. As target cells the colon carcinoma sublines CX+ and CX− were used. For blocking studies the mAb C92F3B1 and an isotype matched control antibody (IgG1) were used at a final concentration of 5 μg/1×10^6 cells. Following incubation of CX+ and CX− target cells with the antibodies for 30 min at 4° C., the cells were labeled with ^51Cr and the cytotoxicity assay was performed as described by MacDonald (MacDonald et. al. (1974) J. Exp. Med. 140,718). The percentage of specific lysis was calculated as: [(experimental release−spontaneous release)/(maximal release−spontaneous release)]×100.
(§3) Cell kill of CX+/CX− and Colo+/Colo− tumor cells following contact with freshly isolated, unstimulated (NK d0) or Hsp70-peptide TKD stimulated NK cells (NK d3) was quantitated in a 12 h ^51Cr release assay (FIG. 4B). […] Technically, it is not possible to quantify the absolute amount of granzyme B that is transferred from NK cells into tumor cells by cell-to-cell contact. However, relative values of granzyme B release could be determined by ELISPOT analysis. Therefore, a comparison of the cytolytic response of freshly isolated, unstimulated (NK d0) and TKD-stimulated NK cells (NK d3) against CX+/CX− and Colo+/Colo− tumor cells was performed concomitantly with the definition of the granzyme B release. […] At an E:T ratio of 5:1, the number of granzyme B spots, as determined in three independent experiments, was as follows: CX+ 260±20, CX− 165±6; Colo+ 137±55; Colo− 66±8. […]

[4] = system: CX− tumor target cells; experiment: as above; assay type: cell-based, human; conditions: TKD 3 days
Method: as §1, §2, §3

[5] = system: Colo+ tumor target cells; experiment: as above; assay type: cell-based, human; conditions: E:T ratios 2:1 to 20:1; TKD 3 days
Method: as §1, §2, §3

[6] = system: Colo− tumor target cells; experiment: as above; assay type: cell-based, human; conditions: TKD 3 days
Method: as §1, §2, §3

[7] = system: CX+ tumor cells; experiment: Granzyme B ELISPOT, NK cells co-incubated with tumor cells; assay type: cell-based, human; conditions: TKD-stimulated NK cells (NK d3), 4 h coincubation, E:T 5:1, three independent experiments
Method: (§4) Granzyme B release was compared in unstimualted NK cells (NK d0) and TKD stimulated NK cells (NK d3) after a 4 h co-incubation period with tumor cell lines CX+/CX− and Colo+/Colo−, at different effector to target cell ratios (E:T) ranging from 20:1 to 2:1. For detection a Granzyme B ELISPOT kit (#552572, BD, Heidelberg, Germany) was used. Briefly, 96-well ELISPOT plates (MAIPN45, Millipore) were coated overnight at 4° C. with capture antibody, blocked with RPMI-1640 culture medium containing 10% FCS and incubated with tumor and effector cells for 4 h at 37° C., as specified before. After washing in deionized water and wash buffers A and B, biotinylated anti-granzyme B antibody was added (2 μg/ml) for 2 h. After another two washing steps granzyme B was visualized by the addition of freshly prepared avidin-horseradish peroxidase (2 h) and substrate solution (25 min incubation period). Spots were counted automatically using ImmunoSpot Series I Analyzer. ^51Cr Release Assay and Inhibition Assay
(§5) Cell kill of CX+/CX− and Colo+/Colo− tumor cells following contact with freshly isolated, unstimulated (NK d0) or Hsp70-peptide TKD stimulated NK cells (NK d3) was quantitated in a 12 h ^51Cr release assay (FIG. 4B). […] Technically, it is not possible to quantify the absolute amount of granzyme B that is transferred from NK cells into tumor cells by cell-to-cell contact. However, relative values of granzyme B release could be determined by ELISPOT analysis. Therefore, a comparison of the cytolytic response of freshly isolated, unstimulated (NK d0) and TKD-stimulated NK cells (NK d3) against CX+/CX− and Colo+/Colo− tumor cells was performed concomitantly with the definition of the granzyme B release. Irrespectively of the tumor cell line and the E:T cell ratio, co-incubation of tumor cells with unstimulated NK cells (NK d0), always results in very low granzyme B release; the number of spots was always less than 20. […] At an E:T ratio of 5:1, the number of granzyme B spots, as determined in three independent experiments, was as follows: CX+ 260±20, CX− 165±6; Colo+ 137±55; Colo− 66±8. […] It was hypothesized that interaction of granzyme B with membrane-bound Hsp70-peptide TKD is key for its uptake into tumor cells and for the induction of apoptosis. When NK cells were removed by washing with PBS and the tumor cells were stained with DAPI. […] Identical results were obtained with Annexin V-FITC staining (data not shown).

[8] = system: CX− tumor cells; experiment: as above; assay type: cell-based, human; conditions: TKD-stimulated NK cells (NK d3), 4 h coincubation, E:T 5:1, three independent experiments
Method: as §4, §5

[9] = system: Colo+ tumor cells; experiment: as above; assay type: cell-based, human; conditions: TKD-stimulated NK cells (NK d3), 4 h coincubation, E:T 5:1, three independent experiments
Method: as §4, §5

[10] = system: Colo− tumor cells; experiment: as above; assay type: cell-based, human; conditions: TKD-stimulated NK cells (NK d3), 4 h coincubation, E:T 5:1, three independent experiments
Method: as §4, §5

[11] = system: Hsp70 membrane-negative CX− cells; experiment: Microscopy of tumor cells co-incubated with Hsp70-peptide TKD stimulated NK cells; assay type: cell-based, human
Method: (§6) FIG. 4A: Light microscopy (magnification 20×) of Hsp70 membrane-positive CX+ and Hsp70 membrane-negative CX− cell colonies, either untreated (control) or following a 12 h co-incubation with Hsp70-peptide TKD stimulated NK cells (+NK). The effector to target cell ratio (E:T) was 20:1.
(§7) The physiological role of our findings was tested in functional assays using naive and Hsp70 stimulated human NK cells. […] Although Hsp70 acts as a tumor-selective recognition structure for NK cells, as determined by antibody blocking studies (Multhoff et. al. (1997) J. Immunol. 158,4341; Multhoff et. al. (1995) Blood 86,1374), the NK-cytotoxic mechanism remains unclear. To elucidate the possible mechanism, NK cells were incubated with Hsp70-peptide TKD ([…]) for 3 days. […] In contrast, granzyme B expression was not increased in CD3 positive T cells treated with Hsp70-peptide TKD. Light microscopical analysis of Hsp70-peptide activated NK cells co-incubated with Hsp70 membrane-positive CX+ and Hsp70 membrane-negative CX− cells is illustrated in FIG. 4A. Hsp70 membrane-positive CX+ and Hsp70 membrane-negative CX− tumor cells (0.1×10^6 cells/ml) were cultured in duplicates in 24 well plates for 2 days. […] CX+ and CX− tumor cells in the upper panel were cultured in the absence of NK cells; tumor cells in the lower panel were co-cultured for 12 h with NK cells that had been stimulated with Hsp70-peptide TKD (2 μg/ml, 3 days). Nearly 100% of the CX+ cell colonies were found in clusters with NK cells and viability of CX+ tumor cells appears to be reduced. […] Cell viability of CX− tumor cells following contact with NK cells appears to be less affected, as compared to that of CX+ tumor cells. The inserts in the lower right corner of each graph illustrates a 2.5× magnification of one representative cell colony.
as §3

[12] = system: Hsp70 membrane-positive CX+ cells; experiment: as above; assay type: cell-based, human
Method: as §6, §7, §3

[13] = system: Hsp70 membrane-positive tumor target cells; conditions: Hsp70-peptide 0.2-2.0 μg/ml; cited from earlier work
[14] = 12 h co-culture with NK cells stimulated with TKD 2 μg/ml, 3 days, E:T 20:1

**Q.** For “TKDNNLLGRFELSG (listed as Homo sapiens) [Hsp70-peptide TKD]”, which “intracellular granzyme B levels, TKD stimulated NK cells (NK d3) versus naive NK cells (NK d0)” value ([1]; Hsp70-peptide TKD 2 μg/ml, 3 days) is on record?
**A.** Its value is 1.4 fold.

**Q.** What about the “intracellular granzyme B expression in NK cells” value ([1]; Hsp70-peptide TKD for 3 days, 3 independent experiments) of the same sequence?
**A.** Its value is “significantly elevated”.

**Q.** What about the “granzyme B expression in CD3 positive T cells” value [2] of the same sequence?
**A.** Its value is “not increased”.

**Q.** What about the “lysis of CX+ cells, TKD stimulated (NK d3) versus naive NK cells (NK d0)” value [3] of the same sequence?
**A.** The value was 1.5 fold.

**Q.** And the “lysis of CX− tumor cells, NK d3 versus NK d0” value [4]?
**A.** The value was “remained unaffected”.

**Q.** What about the “lysis of Colo+ cells, TKD stimulated (NK d3) versus naive NK cells (NK d0)” value [5] of the same sequence?
**A.** Its value is 2.0 fold.

**Q.** And the “lysis of Colo− tumor cells, NK d3 versus NK d0” value [6]?
**A.** Its value is “remained unaffected”.

**Q.** What about the “number of granzyme B spots” value [7] of the same sequence?
**A.** The value was 260±20.

**Q.** What about the “number of granzyme B spots” value [8] of the same sequence?
**A.** Its value is 165±6.

**Q.** What about the “number of granzyme B spots” value [9] of the same sequence?
**A.** Its value is 137±55.

**Q.** What about the “number of granzyme B spots” value [10] of the same sequence?
**A.** The value was 66±8.

**Q.** What about the “CX− tumor cells in clusters with NK cells” value [11, 14] of the same sequence?
**A.** Its value is “not found in clusters”.

**Q.** What about the “DNA fragmentation (DAPI) in CX− cells after co-incubation with TKD activated NK cells” value ([11]; NK cells removed by washing) of the same sequence?
**A.** Its value is “not”.

**Q.** And the “CX+ cell colonies found in clusters with NK cells” value [12, 14]?
**A.** Its value is ~100%.

**Q.** What about the “DNA fragmentation (DAPI) in CX+ cells after co-incubation with TKD activated NK cells” value ([12]; NK cells removed by washing) of the same sequence?
**A.** The value was “showed DNA fragmentation”.

**Q.** What about the “cytolytic activity of NK cells against Hsp70 membrane-positive tumor target cells” value [13] of the same sequence?
**A.** The value was “increased cytolytic activity”.
